# Laboratory results taken from ChEMBL document CHEMBL1134072, “Anodic oxidation of ifosfamide and cyclophosphamide: a biomimetic metabolism model of the oxazaphosphorinane anticancer drugs” (Bioorg Med Chem Lett, 2001).
# Assay: In vitro cytotoxicity tested as inhibitory concentration against carcinoma KB cell line
# Type: functional, cell-based
# Details: Homo sapiens
row,Compound,IC50 [µM]
1,CO[C@@H]1CCOP(=O)(NCCCl)N1CCCl (stereo partly drawn),22
2,CO[C@H]1CCOP(=O)(NCCCl)N1CCCl (stereo partly drawn),20
3,O=P1(NCCCl)OCCC(O)N1CCCl (stereo not drawn) [ALDOIFOSFAMIDE],10
